# Experimental data as given in patent US9365608B2, “Method for treating diabetes” (Ohr Pharmaceutical, Inc., priority 2007, dated 2016).
# Entries after “also recorded” stand apart in the source; their conditions may differ.
# Assays:
# full length TCPTP = target: T1, full length TCPTP (Homo sapiens, UniProt P17706); experiment: Inhibition of TCPTP by steroid analogues (pNPP hydrolysis); assay type: biochemical; conditions: 200 μM inhibitor; pNPP substrate
# T1 construct: except full length TCPTP was used as the enzyme
# T1 sequence (P17706 1-415): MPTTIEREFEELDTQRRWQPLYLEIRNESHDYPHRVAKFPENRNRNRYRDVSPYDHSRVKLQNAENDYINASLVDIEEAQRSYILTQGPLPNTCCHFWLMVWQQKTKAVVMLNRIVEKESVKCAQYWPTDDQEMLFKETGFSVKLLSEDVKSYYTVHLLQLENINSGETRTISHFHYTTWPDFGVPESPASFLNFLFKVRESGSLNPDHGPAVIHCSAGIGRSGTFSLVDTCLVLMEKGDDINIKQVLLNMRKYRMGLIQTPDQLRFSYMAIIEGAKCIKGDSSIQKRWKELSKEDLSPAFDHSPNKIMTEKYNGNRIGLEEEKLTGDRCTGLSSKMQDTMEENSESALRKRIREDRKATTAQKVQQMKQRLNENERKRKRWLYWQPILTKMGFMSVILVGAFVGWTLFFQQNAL
# Experimental: The steroid analogues were tested for inhibition against the commercially available full length tyrosine phosphatase PTP1B. The ability of each analogue to inhibit the activity of PTP1B was measured in the presence of 10 μM of the steroid analogue. The assay uses para-nitro-phenyl phosphate (pNPP), a non-specific substrate to assess phosphatase activity. Phosphatase activity was based on the ability of PTP 1B to catalyze the hydrolysis of pNPP to p-nitrophenol (pNP).
# The steroid analogues were also tested for their ability to inhibit the tyrosine phosphatase TCPTP as an indication of their potential toxicity by the inhibition of the immune response. The TCPTP inhibition assay was done in the same manner as the PTP1B assay except full length TCPTP was used as the enzyme and the inhibitor was at a concentration of 200 μM. The results of the TCPTP inhibition assays are shown in Table 1, column D and show three compounds that inhibit TCPTP less than 50% even at a 20 fold greater concentration.
# Db/db (Lepr^db) mouse [1] = experiment: Fasting blood glucose in the diabetic Db/db mouse; assay type: in vivo; conditions: Db/db mice; for % Reduction in FBG: 5 or 10 mg/kg ip every 3 days x4 doses, study day 14 after overnight fast, vs saline; for Reduction of FBG levels compared to saline control (in words): study day 14
# Experimental: (§1) To determine in vivo efficacy of the steroid analogues a Db/db (Lepr^db) in mouse model was used. Db/db mice are extensively used for screening of antidiabetic agents. Db/db mice were treated with either saline or 5 or 10 mg/kg steroid analogue every 3 days for a total of 4 doses via ip injection. Body weight, glucose tolerance and fasting blood glucose levels were measured for each group during the study. Each group had at least an N of 4 animals. All reagents and lab animals are commercially available.
# On study day 13, all animal groups were fasted overnight. On study day 14, 25 μL of whole blood was collected and analyzed for the glucose level (mg/dL) using a glucose analyzer.
# Db/db (Lepr^db) mouse [2] = experiment: Oral glucose tolerance test (OGTT) in the diabetic Db/db mouse; assay type: in vivo; conditions: for % Reduction in OGTT Above Baseline AUC / Reduction in ABAUC compared to saline control (in words): Db/db mice; for % Reduction in OGTT Above Baseline AUC: 5 or 10 mg/kg ip every 3 days x4, day 14, oral glucose 1.5 g/kg, 0-120 min, vs saline; for Reduction in ABAUC compared to saline control (in words): OGTT study day 14, p<0.05; for Response in glucose tolerance test vs saline treated controls (FIG. 3 legend): legend says ob/ob mice
# Experimental: as §1
# Also on study day 14, an OGTT was performed to assess glucose tolerance. At time 0, an oral glucose challenge (1.5 g/kg) was administered by oral gavage. At timepoints 0, 15, 30, 60, 90, 120 min post glucose load, 25 μl of whole blood was withdrawn from the tail vein of the animal and the glucose level was measured using a glucose analyzer. The glucose concentration vs time was plotted (FIG. 2). Above baseline area under the curve (ABAUC) of the glucose excursion time curve was determined using trapezoidal rule analyses.
# Db/db (Lepr^db) mouse [3] = experiment: Body weight change in the diabetic Db/db mouse; assay type: in vivo; conditions: Db/db mice, 5 or 10 mg/kg ip every 3 days x4; for % Change in Body Weight: vs body weight on study day 0
# Experimental: as §1
# Starting at study day 0, body weight measurements were taken every day for each group for up to 30 days. Percent change in body weight was calculated as the fractional response of body weight on study day X over the original body weight on study day 0.
# [4] = tested on: Insulin Receptor β (IR-β) in the hypothalamus; experiment: Phosphorylation of IR-β in the rat hypothalamus (IP / anti-pTyr western blot); assay type: in vivo; conditions: male SD rats, 10 mg/kg i.p. Day 0; insulin 100 U/kg i.p. Day 1; 15 or 30 min post-dose; listed as MSI-1436, 10 mg/kg
# Experimental: Male SD rats were divided into 8 groups with 4 rats per group. All rats were fed ad libitum normal rodent chow and regular tap water. On Day 0, rats were dosed via intraperitoneal (i.p.) injection with 10 mg/kg MSI-1436 or 0.9% saline. Rats were fasted overnight from Day 0 to Day 1. On Day 1, animals were dosed i.p. with 0.9% saline or 100 U/kg of insulin. At 15 or 30 minutes post-dose (Day 1), animals were sacrificed and the hypothalamuses were harvested, transferred to 1.5 mL eppendorf tubes, and frozen in liquid nitrogen. Samples were stored at −80° C. until further analysis. Hypothalamuses were pooled (3-4 per group) and homogenized in 2-mL Wheaton vials and Dounce homogenizers in 1 mL of tissue extraction reagent plus phosphatase and protease inhibitors. Lysates were centrifuged for 10 minutes at 4° C. (14,000 rpm) and the supernatants were transferred to new 1.5 mL eppendorf tubes. Lysates (500 μg) were immunoprecipitated for Insulin Receptor β overnight at 4° C. The samples were then bound to Protein A according to standard protocols for 4 hours at 4° C. […]
# 500 μg of total protein from each sample was loaded onto a 1.5 mm 4-12% Bis-Tris Novex gel and run at 175V for approximately 1 hr in 1×MOPS buffer. […] The ratio of the pTyr-IRβ band to the IRβ band was computed in Excel and the fold change in IR phosphorylation determined. […]
# [5] = previously described in US patents; cited from earlier work
# [6] = target: T2, full length tyrosine phosphatase PTP1B (Homo sapiens, UniProt P18031); experiment: Inhibition of PTP1B by steroid analogues (pNPP hydrolysis, absorbance 405 nm); assay type: biochemical; conditions: read-out: PTP1B Inhibition (5 μM)
# T2 construct: commercially available full length tyrosine phosphatase PTP1B; purchased
# T2 sequence (P18031 1-435): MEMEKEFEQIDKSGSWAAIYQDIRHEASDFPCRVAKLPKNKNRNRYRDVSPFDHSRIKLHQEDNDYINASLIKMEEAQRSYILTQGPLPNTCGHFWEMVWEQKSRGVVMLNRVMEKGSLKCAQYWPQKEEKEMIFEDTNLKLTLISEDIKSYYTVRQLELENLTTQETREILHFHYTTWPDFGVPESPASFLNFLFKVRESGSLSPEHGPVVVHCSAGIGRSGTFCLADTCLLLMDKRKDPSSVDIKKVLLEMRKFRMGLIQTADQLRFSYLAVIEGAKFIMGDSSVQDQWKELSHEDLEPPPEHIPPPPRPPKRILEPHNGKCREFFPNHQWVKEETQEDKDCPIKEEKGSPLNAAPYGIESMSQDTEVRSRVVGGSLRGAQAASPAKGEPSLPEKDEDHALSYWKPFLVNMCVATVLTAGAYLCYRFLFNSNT
# Experimental: The steroid analogues were tested for inhibition against the commercially available full length tyrosine phosphatase PTP1B. […] The assay uses para-nitro-phenyl phosphate (pNPP), a non-specific substrate to assess phosphatase activity. Phosphatase activity was based on the ability of PTP 1B to catalyze the hydrolysis of pNPP to p-nitrophenol (pNP).
SMILES,inhibition at 200 µM (full length TCPTP),% Reduction in FBG (Db/db (Lepr^db) mouse [1]),Reduction of FBG levels compared to saline control (in words) (Db/db (Lepr^db) mouse [1]),% Reduction in OGTT Above Baseline AUC (Db/db (Lepr^db) mouse [2]),Reduction in ABAUC compared to saline control (in words) (Db/db (Lepr^db) mouse [2]),% Change in Body Weight (Db/db (Lepr^db) mouse [3]),also measured
CC(C)CCC[C@@H](C)[C@H]1CCC2C3CC[C@H]4C[C@@H](NCCCNCCCCNCCCN)CC[C@]4(C)C3CC[C@@]21C (stereo partly drawn) [Compound 1303],83%,–,–,–,–,–,–
COC(=O)CC[C@@H](C)[C@H]1CCC2C3C(CC[C@@]21C)[C@@]1(C)CC[C@H](NCCCNCCCCN)C[C@@H]1C[C@H]3O (stereo partly drawn) [Compound 1320],0%,–,–,–,–,–,–
C[C@H](CCS(=O)(=O)O)[C@H]1CCC2C3CC[C@H]4C[C@@H](NCCCNCCCCN)CC[C@]4(C)C3CC[C@@]21C (stereo partly drawn) [Compound 1370],44%,–,–,–,–,–,–
CC(C)CCC[C@@H](C)[C@H]1CCC2C3C(CC[C@@]21C)[C@@]1(C)CC[C@H](NCCCNCCCCN)C[C@@H]1C[C@H]3O (stereo partly drawn) [Compound 1371],0%,–,–,–,–,–,–
COC(=O)CC[C@@H](C)[C@H]1CCC2C3C[C@@H](O)[C@H]4C[C@@H](NCCN)CC[C@]4(C)C3CC[C@@]21C (stereo partly drawn) [Compound 1431],–,55%,significant reduction,47%,significant reduction,−7%,Weight loss (in words) (Db/db (Lepr^db) mouse [3]): weight loss similar to 1436
CC(C)[C@@H](CC[C@@H](C)[C@H]1CCC2C3C(CC[C@@]21C)[C@@]1(C)CC[C@H](NCCCNCCCCNCCCN)C[C@@H]1C[C@H]3O)OS(=O)(=O)O (stereo partly drawn) [Compound 1436],0%,64%,significant reduction,83%,significant reduction,−8%,"Amount of phospho-Tyrosine on insulin stimulated IR-β in the hypothalamus (fold change, pTyr-IRβ/IRβ) [4]: can increase the level; also recorded: nearly doubles; Weight gain and appetite in animal models [5]: inhibit weight gain and suppress appetite"
CC(C)[C@@H](CC[C@@H](C)[C@H]1CCC2C3C(CC[C@@]21C)[C@@]1(C)CC[C@H](NCCCNCCCCNCCCN)C[C@H]1C[C@H]3O)OS(=O)(=O)O (stereo partly drawn) [Compound 1701],–,40%,significant reduction,49%,significant reduction,3%,Response in glucose tolerance test vs saline treated controls (FIG. 3 legend) (Db/db (Lepr^db) mouse [2]): respond significantly faster; Weight loss (in words) (Db/db (Lepr^db) mouse [3]): do not produce weight loss
CC(C)[C@H](OS(=O)(=O)O)[C@@H](C)[C@H]1CCC2C3C(CC[C@@]21C)[C@@]1(C)CC[C@H](NCCCNCCCCNCCCN)C[C@@H]1C[C@H]3O (stereo partly drawn) [Compound 1814],–,46%,significant reduction,60%,significant reduction,–,–
CC(C)[C@@H](CC[C@@H](C)[C@H]1CCC2C3C(CC[C@@]21C)[C@@]1(C)CC[C@H](NCCCNCCCCNCCCN)C[C@@H]1C[C@H]3O)OS(=O)(=O)O (stereo partly drawn) [Compound 1873],–,41%,significant reduction,47%,significant reduction,4%,Response in glucose tolerance test vs saline treated controls (FIG. 3 legend) (Db/db (Lepr^db) mouse [2]): respond significantly faster; Weight loss (in words) (Db/db (Lepr^db) mouse [3]): do not produce weight loss
CC(C)[C@@H](CC[C@@H](C)C1CCC2C3C(CC[C@@]21C)[C@@]1(C)CCC(=O)C[C@H]1C[C@@H]3O)S(=O)(=O)O (stereo partly drawn) [Compound 2347],–,–,–,–,–,–,inhibition at 5 µM [6]: 27%
CC(C)[C@@H](CC[C@@H](C)[C@H]1CCC2C3C(CC[C@@]21C)[C@@]1(C)CCC(O)C[C@H]1C[C@H]3O)OS(=O)(=O)O (stereo partly drawn) [Compound 2459],–,–,–,–,–,–,inhibition at 5 µM [6]: 17%
CNCCNC(C)[C@H]1CCC2C3CC=C4CC(O)CC[C@]4(C)C3CC[C@@]21C (stereo partly drawn) [Compound 2498],–,–,–,–,–,–,inhibition at 5 µM [6]: 13%
